Experimental data: patent US12371453B2, “Polypeptide having antibacterial activity, composition for preventing or treating sepsis comprising same, and antibacterial composition” (priority 2019, dated 2025)
Where two headings read alike, the source gives them in different places. Ends that are not written are not given here.

How the values were obtained:
[1] = system: CR-Klebsiella pneumoniae
Protocol: (§1) The antibacterial activity was evaluated according to an antibacterial activity test method for measuring the minimum inhibitory concentration 50 (MIC50; the minimal concentration that kills 50% of bacteria).
(§2) More specifically, 100 μL of a medium was dispensed into each well of a 96-well plate, and in the first column, an antibiotic and a peptide in 200 μL of the medium were dispensed. 1/2 serial dilution was performed from columns 1 to 11 and five types of antibiotic-resistant bacteria (ESBL-resistant E. coli, carbapenem-resistant A. baumannii, carbapenem-resistant Klebsiella pneumoniae, carbapenem-resistant Pseudomonas aeruginosa, colistin-resistant Acinetobactor baumannii), which had been previously cultured, were diluted (OD600 nm value in dilution: approximately 0.0025) and dispensed into each well. The plate was incubated in a 37° C. incubator for 4 hours, and measured at OD600 nm.

[2] = system: Colistin resistant AB (Acinetobactor baumannii)
Protocol: as §1, §2

[3] = system: ESBL (E. coli)
Protocol: as §1, §2

[4] = system: Carbapenem resistant (CR)-Acinetobactor baumannii; experiment: organism not typed
Protocol: as §1, §2

[5] = LPS binding affinity by Isothermal Titration Calorimeter (ITC); design: species or system E. coli K1; details: for LPS binding affinity (in words): compared with FP1 (wild type, WT); for Kd: peptide binding to LPS, read-out: Kd (calculated by ITC)
Excerpt: FPT (ADK 44-54) is denoted by wild type (WT), and peptides in which a point mutation occurred at various sites in WT were manufactured (FP3, FP5, FP6, and FP9). To increase the interaction with LPS in a residue sequence of FP3, peptides were designed based on FP3- and LPS-binding models (FP12-NH2 and FP13-NH2), and peptides were designed by additionally introducing a non-natural amino acid and an amino acid isomer (allomeric D-type amino acid) (allD FP12-NH2, allD FP13-NH2, allD FP-13-9a, allD FP-13-9w, allD FP-13-9k, and allD FP13-NH2 (AcOH)). In addition, an N-terminus PEGylated peptide (PEG-alld FP13-NH2 (AcOH)) was additionally designed, synthesized, and provided by ANYGEN, Co. Ltd. The binding affinity between each of the provided peptides and lipopolysaccharide (LPS) was confirmed through measuring the binding affinity (Kd) using Isothermal Titration Calorimeter (ITC).
Specifically, a method of analyzing binding affinity (Kd) between a peptide and LPS is as follows.
Measurement was carried out using a Malvern MicroCal PEAQ-ITC cell instrument, and the following pretreatment was carried out to confirm interaction with LPS. The amount and morphology of a sample cell are 300 μL and coin-shaped, fixed-in-place, respectively; a syringe rotation rate was 1,200 rpm; and a temperature was 30° C., 35° C. or 25° C.
Before the experiment, LPS and the peptide were previously diluted with PBS, thereby preparing 2 mM LPS and 0.2 mM peptide. 300 μL of the peptide was added into cells in the ITC instrument, which had been washed, and 40 μL of LPS was put into a syringe. After measurement conditions for ITC (temperature, number of injections) were set, the syringe was inserted into the cell, and ITC measurement was started. When the measurement was completed, analysis is performed, and the Kd values of LPS and the peptide were calculated.

[6] = system: Acinetobacter baumannii (ATCC 19606); experiment: microbe, parasite or virus in culture; details: Acinetobacter baumannii ATCC 19606
Protocol: (§3) To compare the antibacterial activity between the four commercially available antibiotics (ampicillin, gentamicin, levofloxacin and imipenem) and the allD FP13-NH2 (AcOH) peptide, an antibacterial activity test was performed to measure the minimum inhibitory concentrations (MIC50 and MIC80) for gram-negative and gram-positive standard strains (Escherichia coli DH5α, Escherichia coli K1, Acinetobacter baumannii, Pseudomonas aeruginosa, Salmonella enteritidis, Salmonella typhimurium, and Klebsiella pneumoniae).
(§4) More specifically, 100 μL of a medium was dispensed into each well of a 96-well plate, and in the first column, an antibiotic and a peptide in 200 μL of the medium were dispensed. 1/2 serial dilution was performed from columns 1 to 11, and gram-negative and gram-positive bacteria which had been previously cultured were diluted (OD600 nm value in dilution: approximately 0.0025) and dispensed into each well. The plate was incubated in a 37° C. incubator for 4 hours, and measured at OD600 nm.

[7] = system: Escherichia coli DH5α (ATCC PTA-4750); experiment: microbe, parasite or virus in culture; details: Escherichia coli DH5α, 4 hours
Protocol: as §3, §4

[8] = system: Escherichia coli K1; experiment: microbe, parasite or virus in culture; details: Escherichia coli K1
Protocol: as §3, §4

[9] = system: Klebiella pneumoniae (ATCC 13883); experiment: microbe, parasite or virus in culture; details: Klebsiella pneumoniae ATCC 13883
Protocol: as §3, §4

[10] = system: Pseudomanas aeruginosa PAO1 (ATCC 47085D-5); experiment: microbe, parasite or virus in culture; details: Pseudomonas aeruginosa PAO1
Protocol: as §3, §4

[11] = system: Salmonela enteritidis (ATCC 13076); experiment: microbe, parasite or virus in culture; details: Salmonella enteritidis ATCC 13076
Protocol: as §3, §4

[12] = system: Salmonela typhimurium (ATCC 53648); experiment: microbe, parasite or virus in culture; details: Salmonella typhimurium ATCC 53648
Protocol: as §3, §4

In the case of KLRVKLRRYLR [FP13], the “MIC50, CR-Klebsiella pneumoniae” value ([1]; CR-) is reported as less than 62 µg/mL, the “MIC50, Colistin resistant AB” value [2] is reported as less than 62 µg/mL and the “MIC50, ESBL (E. coli)” value ([3]; ESBL) is reported as less than 2 µg/mL. The “MIC50, Carbapenem resistant (CR)-Acinetobactor baumannii” value (“MIC50, Carbapenem resistant” for short) [4] was less than 16 µg/mL.

With LRLGVEAKRYLR [FP5] the “LPS binding affinity (in words)” value [5] was “strong LPS binding affinity” and the Kd [5] was 854 µM.

In the case of LRLGVELKRYLR [FP6], the “LPS binding affinity (in words)” value [5] is reported as “strong LPS binding affinity” and the Kd [5] is reported as 11.1 µM.

“PEG-KLRVKLRRYLR-NH2 [PEG-alld FP13-NH2 (AcOH)]” showed a Kd [5] of 17.5 µM.

With RLRVKLRRYLR [FP12] the “MIC50, CR-Klebsiella pneumoniae” value ([1]; CR-) was less than 62 µg/mL, the “MIC50, Colistin resistant AB” value [2] was less than 125 µg/mL and the “MIC50, ESBL (E. coli)” value ([3]; ESBL) was less than 2 µg/mL. The “MIC50, Carbapenem resistant” value [4] was less than 16 µg/mL.

For colistin [reference compound], the “MIC50, CR-Klebsiella pneumoniae” value ([1]; CR-K. pneumoniae) was less than 125 µg/mL, the “MIC50, Colistin resistant AB” value ([2]; colistin resistant A. baumannii) was “No effect” and the “MIC50, ESBL (E. coli)” value ([3]; ESBL E. coli) was less than 0.5 µg/mL. The “MIC50, Carbapenem resistant” value ([4]; CR-A. baumannii) was less than 1 µg/mL.

For gentamicin, the “MIC (μg/ml) 50%” value ([6]; 50% growth inhibition) was less than 1.0 µg/mL, the “MIC (μg/ml) 80%” value ([6]; 80% growth inhibition) was less than 2.0 µg/mL and the “MIC (μg/ml) 50%” value ([7]; 50% growth inhibition) was less than 0.5 µg/mL. For the same substance, the “MIC (μg/ml) 80%” value ([7]; 80% growth inhibition) was less than 1.0 µg/mL, the “MIC (μg/ml) 50%” value ([8]; 50% growth inhibition) was less than 0.5 µg/mL and the “MIC (μg/ml) 80%” value ([8]; 80% growth inhibition) was less than 1.0 µg/mL. For the same substance, the “MIC (μg/ml) 50%” value ([9]; 50% growth inhibition) was less than 0.5 µg/mL, the “MIC (μg/ml) 80%” value ([9]; 80% growth inhibition) was less than 1.0 µg/mL and the “MIC (μg/ml) 50%” value ([10]; 50% growth inhibition) was less than 0.5 µg/mL. The “MIC (μg/ml) 80%” value ([10]; 80% growth inhibition) was less than 1.0 µg/mL, the “MIC (μg/ml) 50%” value ([11]; 50% growth inhibition) was less than 0.5 µg/mL and the “MIC (μg/ml) 80%” value ([11]; 80% growth inhibition) was less than 1.0 µg/mL. For the same substance, the “MIC (μg/ml) 50%” value ([12]; 50% growth inhibition) was less than 0.5 µg/mL and the “MIC (μg/ml) 80%” value ([12]; 80% growth inhibition) was less than 1.0 µg/mL.

In the case of klrvklrralr-NH2 [allD FP-13-9a-NH2], the “LPS binding affinity (in words)” value [5] is reported as “strong LPS binding affinity” and the Kd [5] is reported as 9.54 µM.

In the case of klrvklrrklr-NH2 [allD FP-13-9k-NH2], the “LPS binding affinity (in words)” value [5] is reported as “strong LPS binding affinity” and the Kd [5] is reported as 1.99 µM.
